Assay results from patent publication US5506359A, “Cocaine analogues and their use as cocaine drug therapies and therapeutic and imaging agents for neurodegenerative disorders” (priority 1993, dated 1996).

Experiments:
[1] = system: squirrel monkeys trained to discriminate cocaine; assay: Drug discrimination (cocaine versus saline); assay type: in vivo, squirrel monkeys (Saimiri sciureus); conditions: training dose cocaine 0.3-0.56 mg/kg
Description: The subjective (interoceptive) effects of cocaine were studied in monkeys through the use of a drug discrimination procedure. […] Squirrel monkeys were trained to discriminate cocaine (0.3-0.56 mg/kg) from saline using a two-level choice procedure.
(§1) For drug discrimination and self administration studies, experiments are conducted with rodents or squirrel monkeys (Saimiri sciureus) seated in standard primate chairs enclosed in ventilated, sound-attenuating chambers. The chairs are equipped with response levers, stimulus lights, food pellet dispensers, and pumps for injecting drugs intravenously. Four animals are studied in each experiment, with each subject receiving all drug treatments whenever possible. Response rates and temporal patterns of responding are monitored continuously during daily experimental sessions. Effects of drugs are analyzed in individual subjects by comparing performances during drug sessions with those during control sessions. […]
Drug discrimination experiments are conducted using cumulative-dose procedures similar to those described in Madras et al. (Soc. Neurosci. Abst. 16:14, 1990; Pharmacol. Biochem. Behav. 35:949-953, 1990) and Spealman et al. (J. Pharmacol. Exp. Ther. 258:945-953, 1991). […] Good agreement has been found between the effects of drugs determined by cumulative-dose procedures and by single-dose procedures when appropriate parameters are selected. […]

[2] = biological target: dopamine transporter, human caudate nucleus and putamen (Homo sapiens, UniProt Q01959); assay: [^3 H]CFT binding to homogenates of human caudate nucleus and putamen; conditions: human caudate nucleus and putamen homogenates
Chain of dopamine transporter, human caudate nucleus and putamen (Q01959 whole entry): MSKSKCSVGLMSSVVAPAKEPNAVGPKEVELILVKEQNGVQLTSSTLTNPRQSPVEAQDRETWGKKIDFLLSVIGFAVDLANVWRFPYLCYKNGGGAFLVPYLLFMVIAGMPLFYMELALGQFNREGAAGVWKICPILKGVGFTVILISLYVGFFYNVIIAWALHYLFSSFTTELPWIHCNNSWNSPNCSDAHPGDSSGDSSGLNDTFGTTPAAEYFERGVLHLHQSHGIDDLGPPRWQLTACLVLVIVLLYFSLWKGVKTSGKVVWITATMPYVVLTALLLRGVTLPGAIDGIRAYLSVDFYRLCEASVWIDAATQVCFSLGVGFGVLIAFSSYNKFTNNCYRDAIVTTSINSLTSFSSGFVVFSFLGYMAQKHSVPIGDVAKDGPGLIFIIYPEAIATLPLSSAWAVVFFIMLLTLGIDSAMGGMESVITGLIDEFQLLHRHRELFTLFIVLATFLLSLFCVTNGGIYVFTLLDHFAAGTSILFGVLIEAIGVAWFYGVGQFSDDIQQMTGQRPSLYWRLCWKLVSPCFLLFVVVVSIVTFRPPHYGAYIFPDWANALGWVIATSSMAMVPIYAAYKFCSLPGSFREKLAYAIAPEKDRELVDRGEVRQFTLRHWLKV
Excerpt: In order to determine whether [^3 H]CFT labels sites associated with the dopamine transporter, the binding of [^3 H]CFT to homogenates of human caudate nucleus and putamen, was characterized.

[3] = system: squirrel monkeys (i.v. drug self-administration); assay: Drug self-administration under second order schedule; assay type: in vivo, squirrel monkeys (Saimiri sciureus)
Excerpt: To determine whether CFT also mimicked cocaine's behavioral effects in vivo (specifically the reinforcing and interoceptive effects), squirrel monkeys were trained to respond under a second order schedule of i.v. drug self-administration (see detailed description below). […] The results were consistent with the view that the reinforcing effects of cocaine are mediated by cocaine recognition sites associated with the dopamine uptake system.
as §1, with “Four animals are studied in each experiment, with each subject receiving all drug treatments whenever possible.” left out
Initially, responding is maintained using an injection dose of 100 μg/kg cocaine, which usually is optimal for developing i.v. self-administration.After consistent rates and patterns of responding are maintained by cocaine, the effects of a full range of doses of cocaine and of selected candidate drugs is determined. […]

[4] = system: [^3 H]CFT binding sites in monkey caudate-putamen; conditions: cited from earlier work

In the case of COC(=O)[C@H]1[C@@H](c2ccc(F)cc2)C[C@@H]2CC[C@H]1N2C [4'a (CFT), 2β-carbomethoxy-3β-(4-fluorophenyl)tropane], the “generalization to cocaine cue” value [1] is reported as “fully generalized to the cocaine cue”, the “rank order of potency for inhibiting [^3 H]CFT binding” value [2] is reported as “Lu 19-005>CFT, mazindol, GBR 12909>(-)-cocaine>bupropion>(+)-cocaine” and the “potency in maintaining responding relative to cocaine” value [3] is reported as “approximately six”. For the same molecule, the “extent of displacement of [^3 H]CFT” value [4] was “full displacement of [^3 H]CFT”, the “number of binding components” value ([4]; competition curves) was “at least two binding components” and the “steepness of competition curve” value ([4]; displacement of [^3 H]CFT) was 0.61-0.89.
